The source of these data is patent publication US9227971B2, “Pyrazolo[1,5-a]pyrimidine compounds as mTOR inhibitors” (Merck Sharp & Dohme Corp., priority 2010, dated 2016).

Like-named read-outs stand apart in the source and are kept apart here.

The subject of test [1] is phosphorylated AKT Ser473 (pAKT S473), mTORC2 activity, PC3 cells. Nature of the test: mTOR target engagement assay, immunofluorescent cell-based, pAKT S473 readout (mTORC2 activity). The conditions noted are these: Homo sapiens. In outline:
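After blocking, cells were stained overnight at 4 °C with anti-pAKT S473 antibody, then a fluorescent secondary; inhibition was read as reduced fluorescence intensity.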

The test system of test [2] is phosphorylated 4E-BP1 Thr37/46 (p4E-BP1 Thr37/46), mTORC1 activity, PC3 cells. Nature of the test: mTOR target engagement assay, immunofluorescent cell-based, p4E-BP1 Thr37/46 readout (mTORC1 activity). The conditions noted are these: Homo sapiens, read-out: p4E-BP1 Thr37/46 IC50. Summed up:
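PTEN-mutant PC3 prostate cells were treated with serially diluted compound in 5% FBS F12 medium (0.25% DMSO) for ninety minutes at 37° C, glyoxal-fixed, then immunostained overnight at 4° C for p4E-BP1 Thr37/46 with an Alexa Fluor 488 secondary. IC50 came from four-parameter fits of fluorescence, DMSO-only wells defining 100%.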

Where [3] appears, read: PC-3, PC3 cells, compound treatment ninety minutes at 37° C.

`COCc1cc(-c2ccc(-c3cnn4c(N)c(C(C)=O)c([C@@H]5C[C@H]6CC[C@@H](C5)N6C(=O)CO)nc34)cn2)ccc1OC` [Compound 1.1.44, 1-((1R,3s,5S)-3-(6-acetyl-7-amino-3-(6-(4-methoxy-3-(methoxymethyl)phenyl)pyridin-3-yl)pyrazolo[1,5-a]pyrimidin-5-yl)-8-azabicyclo[3.2.1]octan-8-yl)-2-hydroxyethanone]: the IC50 in test [1] (setting [3]) lay in the range of 1 to 100 nM; in test [2] (setting [3]) it was 100 to 1000 nM.

On to `CC(=O)c1c([C@@H]2C[C@H]3CC[C@@H](C2)N3C(=O)CO)nc2c(-c3ccc(-c4ncc[nH]4)nc3)cnn2c1N` [Compound 6.3, 1-((1R,3s,5S)-3-(3-(6-(1H-imidazol-2-yl)pyridin-3-yl)-6-acetyl-7-aminopyrazolo[1,5-a]pyrimidin-5-yl)-8-azabicyclo[3.2.1]octan-8-yl)-2-hydroxyethanone], for which the IC50 was in the range of 1 to 100 nM in test [1] (PC-3, Table 6-1, PC3 cells) and 1 to 100 nM in test [2] (PC-3, Table 6-1, PC3 cells).

Turning to `Cc1nc(-c2ccc(-c3cnn4c(N)c(C5CC5)c([C@@H]5C[C@H]6CC[C@@H](C5)N6C(=O)CO)nc34)cn2)[nH]c1C` [Compound 6.32, 1-((1R,3s,5S)-3-(7-amino-6-cyclopropyl-3-(6-(4,5-dimethyl-1H-imidazol-2-yl)pyridin-3-yl)pyrazolo[1,5-a]pyrimidin-5-yl)-8-azabicyclo[3.2.1]octan-8-yl)-2-hydroxyethanone], the IC50 lay in the range of 1 to 100 nM in test [1] (PC-3, Table 6-1, PC3 cells) and 100 to 1000 nM in test [2] (PC-3, Table 6-1, PC3 cells).

As to `CC(=O)c1c([C@@H]2C[C@H]3CC[C@@H](C2)N3C(=O)c2nnc[nH]2)nc2c(-c3ccc(-c4ccc(F)cc4)nc3)cnn2c1N` [Compound 1.1.163, 1-(5-((1R,3s,5S)-8-(4H-1,2,4-triazole-3-carbonyl)-8-azabicyclo[3.2.1]octan-3-yl)-7-amino-3-(6-(4-fluorophenyl)pyridin-3-yl)pyrazolo[1,5-a]pyrimidin-6-yl)ethanone], the IC50 in test [1] (setting [3]) lay in the range of 1 to 100 nM; in test [2] (setting [3]), 100 to 1000 nM.

Consider `CC(=O)c1c([C@@H]2C[C@H]3CC[C@@H](C2)N3C(=O)C(C)(CO)CO)nc2c(-c3ccc(-c4ncc[nH]4)nc3)cnn2c1N` [Compound 6.46, 1-((1R,3s,5S)-3-(3-(6-(1H-imidazol-2-yl)pyridin-3-yl)-6-acetyl-7-aminopyrazolo[1,5-a]pyrimidin-5-yl)-8-azabicyclo[3.2.1]octan-8-yl)-3-hydroxy-2-(hydroxymethyl)-2-methylpropan-1-one], for which the IC50 was 100 to 1000 nM in test [1] (PC-3, Table 6-1, PC3 cells) and 100 to 1000 nM in test [2] (PC-3, Table 6-1, PC3 cells).

With `CC(=O)c1c([C@@H]2C[C@H]3CC[C@@H](C2)N3C(=O)c2nnc[nH]2)nc2c(-c3ccc(-c4cccnc4F)nc3)cnn2c1N` [Compound 1.1.62, 1-(5-((1R,3s,5S)-8-(4H-1,2,4-triazole-3-carbonyl)-8-azabicyclo[3.2.1]octan-3-yl)-7-amino-3-(2′-fluoro-2,3′-bipyridin-5-yl)pyrazolo[1,5-a]pyrimidin-6-yl)ethanone], the IC50 in test [1] (setting [3]) and in test [2] (setting [3]) was 1 to 100 nM throughout.

On to `COc1ccc(-c2ccc(-c3cnn4c(N)c(S(C)(=O)=O)c([C@@H]5C[C@H]6CC[C@@H](C5)N6C(=O)c5nnc[nH]5)nc34)cn2)cc1OC` [Compound 3.39, ((1R,3s,5S)-3-(7-amino-3-(6-(3,4-dimethoxyphenyl)pyridin-3-yl)-6-(methylsulfonyl)pyrazolo[1,5-a]pyrimidin-5-yl)-8-azabicyclo[3.2.1]octan-8-yl)(4H-1,2,4-triazol-3-yl)methanone], for which the IC50 in test [1] (PC-3, Table 3-1, PC3 cells) was 100 to 1000 nM; in test [2] (PC-3, Table 3-1, PC3 cells) it was 100 to 1000 nM.

For `CC(=O)c1c([C@@H]2C[C@H]3CC[C@@H](C2)N3C(=O)c2cnn[nH]2)nc2c(-c3ccc(C(C)(C)O)nc3)cnn2c1N` [Compound 7.10, 1-(5-((1R,3s,5S)-8-(1H-1,2,3-triazole-5-carbonyl)-8-azabicyclo[3.2.1]octan-3-yl)-7-amino-3-(6-(2-hydroxypropan-2-yl)pyridin-3-yl)pyrazolo[1,5-a]pyrimidin-6-yl)ethanone], the IC50 in test [1] (setting [3]) and in test [2] (setting [3]) was 100 to 1000 nM throughout.
